Tests used:
[1] = target: Protein-tyrosine kinase 2-beta (Homo sapiens) (UniProt Q14289); assay: Inhibition of human recombinant PYK2 at 500 nM related to control ULK1
[2] = target: Cyclin-dependent kinase-like 3 (Homo sapiens) (UniProt Q8IVW4); assay: Inhibition of human recombinant CDKL3 at 500 nM in presence of ATP by radiometric assay relative to control
[3] = target: Myosin light chain kinase, smooth muscle (Homo sapiens) (UniProt Q15746); assay: Inhibition of human recombinant smMLCK at 500 nM in presence of ATP by radiometric assay relative to control
Chain of Myosin light chain kinase, smooth muscle (Homo sapiens) (Q15746 whole entry): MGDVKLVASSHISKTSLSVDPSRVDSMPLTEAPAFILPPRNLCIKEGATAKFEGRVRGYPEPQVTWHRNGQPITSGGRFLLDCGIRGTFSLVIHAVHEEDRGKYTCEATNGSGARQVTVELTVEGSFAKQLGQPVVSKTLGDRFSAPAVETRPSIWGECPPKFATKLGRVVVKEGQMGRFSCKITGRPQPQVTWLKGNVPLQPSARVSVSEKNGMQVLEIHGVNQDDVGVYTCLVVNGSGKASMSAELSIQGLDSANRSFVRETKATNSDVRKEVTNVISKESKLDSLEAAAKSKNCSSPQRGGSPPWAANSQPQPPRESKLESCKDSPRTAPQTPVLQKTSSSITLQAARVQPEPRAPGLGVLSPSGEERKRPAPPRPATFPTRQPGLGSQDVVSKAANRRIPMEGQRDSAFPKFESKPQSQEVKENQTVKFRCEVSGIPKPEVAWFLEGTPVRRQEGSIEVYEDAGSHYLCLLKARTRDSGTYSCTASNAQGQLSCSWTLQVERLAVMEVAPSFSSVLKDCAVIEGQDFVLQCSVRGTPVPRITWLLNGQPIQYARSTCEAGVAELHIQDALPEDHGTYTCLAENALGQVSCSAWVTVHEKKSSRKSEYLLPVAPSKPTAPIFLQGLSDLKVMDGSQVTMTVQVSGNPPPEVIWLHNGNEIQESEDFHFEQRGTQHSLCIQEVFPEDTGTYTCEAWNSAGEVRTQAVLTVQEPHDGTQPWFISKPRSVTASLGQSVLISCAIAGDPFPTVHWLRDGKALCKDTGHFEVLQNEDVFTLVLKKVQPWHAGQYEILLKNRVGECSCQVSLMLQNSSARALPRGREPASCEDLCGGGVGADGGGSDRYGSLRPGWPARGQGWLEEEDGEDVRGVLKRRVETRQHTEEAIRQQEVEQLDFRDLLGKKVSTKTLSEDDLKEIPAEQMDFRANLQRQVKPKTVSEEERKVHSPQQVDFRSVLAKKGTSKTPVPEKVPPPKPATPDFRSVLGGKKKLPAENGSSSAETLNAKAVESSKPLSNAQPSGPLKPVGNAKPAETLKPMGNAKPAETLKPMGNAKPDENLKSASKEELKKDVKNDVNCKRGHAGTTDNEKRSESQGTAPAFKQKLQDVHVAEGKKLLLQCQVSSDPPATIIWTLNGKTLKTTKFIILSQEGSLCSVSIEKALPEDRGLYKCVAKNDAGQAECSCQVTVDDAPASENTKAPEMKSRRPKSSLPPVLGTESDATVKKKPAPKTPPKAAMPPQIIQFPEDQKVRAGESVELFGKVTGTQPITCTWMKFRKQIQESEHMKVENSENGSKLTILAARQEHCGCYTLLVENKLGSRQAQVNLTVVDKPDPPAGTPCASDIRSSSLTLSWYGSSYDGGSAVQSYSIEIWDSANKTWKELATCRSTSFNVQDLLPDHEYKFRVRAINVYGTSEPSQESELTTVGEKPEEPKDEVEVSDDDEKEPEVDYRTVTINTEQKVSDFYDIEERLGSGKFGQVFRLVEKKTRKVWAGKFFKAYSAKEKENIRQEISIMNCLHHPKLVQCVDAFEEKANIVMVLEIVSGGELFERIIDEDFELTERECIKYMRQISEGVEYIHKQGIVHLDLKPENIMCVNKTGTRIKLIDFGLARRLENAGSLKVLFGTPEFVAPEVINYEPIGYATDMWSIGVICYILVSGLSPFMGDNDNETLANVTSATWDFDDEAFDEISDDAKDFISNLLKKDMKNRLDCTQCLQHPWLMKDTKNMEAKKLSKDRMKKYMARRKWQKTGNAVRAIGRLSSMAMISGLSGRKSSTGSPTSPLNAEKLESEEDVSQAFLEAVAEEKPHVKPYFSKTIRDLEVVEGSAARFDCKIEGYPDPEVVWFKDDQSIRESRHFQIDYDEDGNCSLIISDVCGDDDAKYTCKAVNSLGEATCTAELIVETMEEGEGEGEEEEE

[4] = target: Tyrosine-protein kinase Fes/Fps (Homo sapiens) (UniProt P07332); assay: Inhibition of human recombinant FES at 500 nM in presence of ATP by radiometric assay relative to control
Chain of Tyrosine-protein kinase Fes/Fps (Homo sapiens) (P07332 whole entry): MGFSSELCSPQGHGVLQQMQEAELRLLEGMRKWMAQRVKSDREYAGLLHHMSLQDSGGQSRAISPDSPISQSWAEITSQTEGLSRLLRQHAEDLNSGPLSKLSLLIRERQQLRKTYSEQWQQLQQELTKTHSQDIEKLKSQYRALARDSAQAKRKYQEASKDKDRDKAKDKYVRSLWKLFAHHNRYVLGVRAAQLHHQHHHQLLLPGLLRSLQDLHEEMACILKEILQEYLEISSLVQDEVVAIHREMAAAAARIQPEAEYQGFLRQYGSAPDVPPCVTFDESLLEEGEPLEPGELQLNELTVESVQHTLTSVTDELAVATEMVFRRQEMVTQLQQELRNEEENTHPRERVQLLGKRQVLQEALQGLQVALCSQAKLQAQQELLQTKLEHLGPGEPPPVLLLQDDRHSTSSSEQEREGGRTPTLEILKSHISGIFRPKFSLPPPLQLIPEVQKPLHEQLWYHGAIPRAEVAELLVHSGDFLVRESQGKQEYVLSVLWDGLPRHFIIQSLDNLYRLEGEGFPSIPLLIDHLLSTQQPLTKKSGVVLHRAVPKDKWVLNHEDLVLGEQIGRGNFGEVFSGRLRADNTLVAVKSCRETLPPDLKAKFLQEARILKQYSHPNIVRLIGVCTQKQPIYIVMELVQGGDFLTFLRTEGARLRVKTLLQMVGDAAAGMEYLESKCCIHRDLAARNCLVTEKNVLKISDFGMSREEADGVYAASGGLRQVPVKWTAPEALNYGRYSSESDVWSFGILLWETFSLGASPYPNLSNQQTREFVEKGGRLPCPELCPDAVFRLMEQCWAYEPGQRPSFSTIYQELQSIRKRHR

[5] = target: 3-phosphoinositide-dependent protein kinase 1 (Homo sapiens) (UniProt O15530); assay: Inhibition of human recombinant PDK1 at 500 nM in presence of ATP by radiometric assay relative to control
[6] = target: Serine/threonine-protein kinase PAK 5 (Homo sapiens) (UniProt Q9P286); assay: Inhibition of human recombinant PAK5 at 500 nM in presence of ATP by radiometric assay relative to control
Chain of Serine/threonine-protein kinase PAK 5 (Homo sapiens) (Q9P286 whole entry, looked up): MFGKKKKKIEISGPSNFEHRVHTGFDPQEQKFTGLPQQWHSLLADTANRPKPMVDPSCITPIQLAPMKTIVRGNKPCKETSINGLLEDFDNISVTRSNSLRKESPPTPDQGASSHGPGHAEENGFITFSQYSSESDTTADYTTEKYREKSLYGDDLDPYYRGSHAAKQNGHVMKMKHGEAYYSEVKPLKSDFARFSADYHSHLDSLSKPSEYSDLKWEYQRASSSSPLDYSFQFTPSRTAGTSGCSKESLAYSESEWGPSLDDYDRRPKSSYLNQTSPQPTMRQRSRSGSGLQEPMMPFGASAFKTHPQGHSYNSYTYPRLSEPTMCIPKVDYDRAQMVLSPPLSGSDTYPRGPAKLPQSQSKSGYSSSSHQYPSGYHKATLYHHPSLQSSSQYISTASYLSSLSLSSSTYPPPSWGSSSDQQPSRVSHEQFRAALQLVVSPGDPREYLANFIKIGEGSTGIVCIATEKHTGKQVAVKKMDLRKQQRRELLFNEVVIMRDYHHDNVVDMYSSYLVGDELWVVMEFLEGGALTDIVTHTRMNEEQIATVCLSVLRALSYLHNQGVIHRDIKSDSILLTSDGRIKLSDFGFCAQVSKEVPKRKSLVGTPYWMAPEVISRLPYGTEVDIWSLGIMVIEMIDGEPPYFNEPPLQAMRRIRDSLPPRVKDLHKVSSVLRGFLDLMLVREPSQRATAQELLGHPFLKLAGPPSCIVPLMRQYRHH

[7] = target: T1, Ephrin type-B receptor 4 (Homo sapiens) (UniProt P54760); assay: Inhibition of human recombinant EphB4 at 500 nM related to control ULK1
T1 sequence (whole entry): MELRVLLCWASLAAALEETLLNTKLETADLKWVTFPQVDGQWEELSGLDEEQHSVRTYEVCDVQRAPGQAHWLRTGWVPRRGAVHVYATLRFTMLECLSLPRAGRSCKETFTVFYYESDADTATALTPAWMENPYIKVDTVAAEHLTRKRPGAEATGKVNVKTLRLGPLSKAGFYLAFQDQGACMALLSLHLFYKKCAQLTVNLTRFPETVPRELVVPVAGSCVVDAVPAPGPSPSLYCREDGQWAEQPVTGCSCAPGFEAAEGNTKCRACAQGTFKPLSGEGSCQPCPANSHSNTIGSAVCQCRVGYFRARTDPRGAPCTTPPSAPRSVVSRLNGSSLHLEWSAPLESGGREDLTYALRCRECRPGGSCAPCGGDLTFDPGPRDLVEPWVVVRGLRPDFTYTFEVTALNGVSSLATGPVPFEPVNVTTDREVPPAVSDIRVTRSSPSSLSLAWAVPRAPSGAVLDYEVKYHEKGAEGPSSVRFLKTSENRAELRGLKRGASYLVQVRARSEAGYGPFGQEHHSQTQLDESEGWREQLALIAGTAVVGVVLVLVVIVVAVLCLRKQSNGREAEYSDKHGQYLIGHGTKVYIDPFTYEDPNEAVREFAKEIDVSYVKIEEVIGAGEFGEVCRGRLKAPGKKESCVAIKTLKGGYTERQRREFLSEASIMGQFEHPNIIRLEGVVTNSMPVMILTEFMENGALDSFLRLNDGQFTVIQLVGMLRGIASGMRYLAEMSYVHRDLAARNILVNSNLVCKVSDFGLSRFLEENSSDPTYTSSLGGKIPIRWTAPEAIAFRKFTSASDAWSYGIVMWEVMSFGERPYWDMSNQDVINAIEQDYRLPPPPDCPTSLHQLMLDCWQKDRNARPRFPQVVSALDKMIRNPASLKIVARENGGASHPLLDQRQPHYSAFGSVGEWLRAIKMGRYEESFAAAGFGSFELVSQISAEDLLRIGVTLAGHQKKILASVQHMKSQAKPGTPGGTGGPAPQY

[8] = target: T2, cGMP-dependent protein kinase 1 (Homo sapiens) (UniProt Q13976); assay: Inhibition of human recombinant PKG1 at 40 nM in presence of ATP by radiometric assay relative to control
T2 sequence (whole entry): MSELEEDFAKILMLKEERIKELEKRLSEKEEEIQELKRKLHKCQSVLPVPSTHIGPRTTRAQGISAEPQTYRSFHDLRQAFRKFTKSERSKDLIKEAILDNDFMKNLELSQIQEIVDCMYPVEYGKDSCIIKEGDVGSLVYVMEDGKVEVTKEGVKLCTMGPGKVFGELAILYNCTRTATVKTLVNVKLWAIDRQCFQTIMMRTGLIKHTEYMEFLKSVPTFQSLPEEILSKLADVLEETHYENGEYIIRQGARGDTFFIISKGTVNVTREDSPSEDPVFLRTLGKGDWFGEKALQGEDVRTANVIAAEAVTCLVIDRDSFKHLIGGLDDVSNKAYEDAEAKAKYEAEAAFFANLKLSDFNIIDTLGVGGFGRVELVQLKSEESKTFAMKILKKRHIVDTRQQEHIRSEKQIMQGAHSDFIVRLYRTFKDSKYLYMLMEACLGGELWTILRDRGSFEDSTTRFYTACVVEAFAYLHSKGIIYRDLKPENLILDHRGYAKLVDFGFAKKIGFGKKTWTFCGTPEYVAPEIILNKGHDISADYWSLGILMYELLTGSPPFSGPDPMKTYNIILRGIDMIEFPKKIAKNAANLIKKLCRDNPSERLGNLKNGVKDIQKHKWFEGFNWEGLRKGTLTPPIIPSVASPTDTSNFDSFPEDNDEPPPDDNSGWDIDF

Chain of Protein-tyrosine kinase 2-beta (Homo sapiens) (Q14289 whole entry, looked up): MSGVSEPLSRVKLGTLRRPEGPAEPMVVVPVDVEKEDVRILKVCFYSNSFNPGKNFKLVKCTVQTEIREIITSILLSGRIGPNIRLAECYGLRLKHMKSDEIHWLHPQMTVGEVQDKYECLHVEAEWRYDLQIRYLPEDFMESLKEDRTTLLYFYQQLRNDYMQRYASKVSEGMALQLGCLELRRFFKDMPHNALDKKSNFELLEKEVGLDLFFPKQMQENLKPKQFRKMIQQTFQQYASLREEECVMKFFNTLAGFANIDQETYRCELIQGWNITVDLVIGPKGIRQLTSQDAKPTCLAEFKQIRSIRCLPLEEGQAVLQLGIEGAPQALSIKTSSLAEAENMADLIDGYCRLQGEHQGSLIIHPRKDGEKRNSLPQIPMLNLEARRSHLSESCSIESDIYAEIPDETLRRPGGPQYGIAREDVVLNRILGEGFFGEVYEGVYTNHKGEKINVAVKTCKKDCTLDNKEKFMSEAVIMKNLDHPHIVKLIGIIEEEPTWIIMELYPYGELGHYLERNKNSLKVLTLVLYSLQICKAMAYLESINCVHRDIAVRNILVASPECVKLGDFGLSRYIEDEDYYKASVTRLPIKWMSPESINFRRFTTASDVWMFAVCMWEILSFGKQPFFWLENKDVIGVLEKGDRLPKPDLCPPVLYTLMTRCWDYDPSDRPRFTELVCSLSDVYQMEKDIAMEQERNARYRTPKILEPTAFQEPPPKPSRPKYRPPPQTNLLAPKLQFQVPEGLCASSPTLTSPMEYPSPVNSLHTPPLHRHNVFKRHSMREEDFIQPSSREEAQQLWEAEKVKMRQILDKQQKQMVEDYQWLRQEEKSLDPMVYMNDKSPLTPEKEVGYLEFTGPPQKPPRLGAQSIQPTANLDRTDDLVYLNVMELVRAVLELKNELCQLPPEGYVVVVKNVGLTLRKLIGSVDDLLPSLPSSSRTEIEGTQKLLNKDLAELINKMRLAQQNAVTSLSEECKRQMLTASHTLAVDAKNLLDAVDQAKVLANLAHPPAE
Chain of Cyclin-dependent kinase-like 3 (Homo sapiens) (Q8IVW4 whole entry, looked up): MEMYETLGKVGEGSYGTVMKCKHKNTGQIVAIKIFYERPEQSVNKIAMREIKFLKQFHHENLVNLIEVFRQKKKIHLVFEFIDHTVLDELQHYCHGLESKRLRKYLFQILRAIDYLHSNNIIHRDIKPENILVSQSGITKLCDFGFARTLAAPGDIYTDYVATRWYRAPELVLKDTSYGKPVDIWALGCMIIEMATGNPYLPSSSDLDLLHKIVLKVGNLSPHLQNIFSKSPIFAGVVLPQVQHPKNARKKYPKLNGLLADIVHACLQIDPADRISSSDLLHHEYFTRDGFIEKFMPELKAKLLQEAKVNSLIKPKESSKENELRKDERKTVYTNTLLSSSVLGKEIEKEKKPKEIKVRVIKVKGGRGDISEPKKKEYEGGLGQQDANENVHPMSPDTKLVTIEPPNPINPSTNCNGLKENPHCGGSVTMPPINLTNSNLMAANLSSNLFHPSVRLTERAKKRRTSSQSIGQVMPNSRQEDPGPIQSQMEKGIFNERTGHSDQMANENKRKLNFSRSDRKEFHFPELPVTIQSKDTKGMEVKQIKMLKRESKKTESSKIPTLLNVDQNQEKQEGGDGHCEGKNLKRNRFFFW

fold change (FC) [1]	inhibition [2]	inhibition [3]	inhibition [4]	inhibition [5]	inhibition [6]	fold change (FC) [7]	inhibition [8]	SMILES
0.72	0%	5%	28%	4%	5%	0		CNC(=O)c1ccccc1Oc1nc(Nc2cc(OC)c(OC)c(OC)c2)ncc1Br
							6%	O=C(N[C@@H](C1CC1)C(F)(F)F)c1cc(-c2cnn3cc(-c4ccc(F)cc4)cnc23)cs1
